In one data set the target is T1, 5-HT1A receptors (Rattus norvegicus, UniProt P19327).
T1 construct: Hippocampal tissue from the brains of male Charles River CD rats; from tissue; host or cells: rat hippocampus membrane homogenate
T1 sequence (P19327 1-422): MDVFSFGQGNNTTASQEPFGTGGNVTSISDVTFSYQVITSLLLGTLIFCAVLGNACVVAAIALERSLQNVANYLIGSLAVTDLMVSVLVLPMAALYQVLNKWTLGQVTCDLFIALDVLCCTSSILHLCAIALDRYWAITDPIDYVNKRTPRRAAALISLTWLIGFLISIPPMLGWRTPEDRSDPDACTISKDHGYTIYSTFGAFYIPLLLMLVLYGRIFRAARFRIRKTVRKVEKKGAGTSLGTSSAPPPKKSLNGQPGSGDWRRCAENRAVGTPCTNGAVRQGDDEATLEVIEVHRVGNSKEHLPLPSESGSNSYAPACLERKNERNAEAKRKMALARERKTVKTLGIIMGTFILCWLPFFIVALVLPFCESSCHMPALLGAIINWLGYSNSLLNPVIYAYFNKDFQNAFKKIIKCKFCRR
The data set can be described thus: Inhibition of [3H]8-OH-DPAT binding to 5-HT1A receptors, rat hippocampal tissue. Conditions: ligand [3H]8-OH-DPAT 2 nM. On the procedure: Hippocampal tissue from the brains of male Charles River CD rats weighing between 150-250 g were homogenised in ice-cold 50 mM Tris-HCl buffer (pH 7.7) when measured at 25° C., 1:40 w/v) and centrifuged at 30,000 g at 4° C. for 10 minutes. The pellet was rehomogenised in the same buffer, incubated at 37° C. for 10 minutes and centrifuged at 30,000 g at 4° C. for 10 minutes. The final pellet was resuspended in 50 mM Tris-HCl buffer (pH 7.7) containing 4 mM CaCl2, 0.1% L-ascorbic acid and 10 μM pargyline hydrochloride (equivalent to 6.25 mg wet weight of tissue/ml) and used immediately in the binding assay. Aliquots (400 μl; equivalent to 2.5 mg wet weight of tissue/tube) of this suspension were added to tubes containing the ligand (50 μl; 2 nM) and distilled water (50 μl; total binding) or 5-HT (50 μl; 10 μM; non-specific binding) or test compound (50 μl; at a single concentration of 10^−6 M or at 10 concentrations ranging from 10^−11-10^−3 M). The ligand was [^3H]8-hydroxy-2-(dipropylamino)tetralin ([^3H]8-OH-DPAT) and the mixture was incubated at 25° C. for 30 minutes before the incubation was terminated by rapid filtration.
(§1) The filters were washed with ice-cold Tris-HCl buffer and dried. The filters were punched out into vials, scintillation fluid added and radioactivity determined by liquid scintillation counting. The percentage displacement of specific binding of the tritiated ligand was calculated for the single concentration (10^−6 M) of test compound. Displacement curves were then produced for those compounds which displaced ≧50% of specific binding of the tritiated ligand at 10^−6 M using a range of concentrations of the compound. The concentration which gave 50% inhibition of specific binding (IC50) was obtained from the curve. The inhibition coefficient Ki was then calculated using the formula [formula]
(§2) in which [ligand] is the concentration of the tritiated ligand used and KD is the equilibrium dissociation constant for the ligand.

Another data set has as its target α1-adrenoceptors. The experiment in a line: Inhibition of [7-methoxy-3H]prazosin binding to α1-adrenoceptors, rat whole cortical tissue. Conditions: ligand [7-methoxy-3H]prazosin 0.1 nM. On the procedure:
Whole cortical tissue from the brains of male Charles River CD rats weighing between 150-250 g were homogenised in ice-cold 50 mM Tris-HCl, pH 7.6 (at 25° C.; 1:40 w/v) and centrifuged at 1000 g at 4° C. for 10 minutes. The supernatant was centrifuged at 30,000 g at 4° C. for 10 minutes. The pellet was rehomogenised in 50 mM Tris-HCl, pH 7.6 (1:40 w/v) and centrifuged at 30,000 g at 4° C. for 10 minutes. The final pellet was resuspended in 50 mM Tris-HCl, pH 7.6 (equivalent to 12.5 mg wet weight of tissue/ml) and used immediately in the binding assay. Aliquots (400 μl; equivalent to 5 mg wet weight of tissue/tube) of this suspension were added to tubes containing the ligand (50 μl; 0.1 nM) and distilled water (50 μl; total binding) or phentolamine (50 μl; 5 μM; non-specific binding) or test compound (50 μl; at a single concentration of 10^−6M or at 10 concentrations ranging from 10^−11-10^−3M). The ligand was [7-methoxy-^3H]prazosin and the mixture was incubated at 30° C. for 30 minutes before the incubation was terminated by rapid filtration.
as §1, §2

Another data set concerns the target T2, D2 dopamine receptors (Rattus norvegicus, UniProt P61169).
T2 construct: Striatal tissue from the brains of male Charles River CD rats; from tissue; host or cells: rat striatum membrane homogenate
The experiment in a line: Inhibition of tritiated (S)-sulpiride binding to D2 dopamine receptors, rat striatal tissue. Conditions: ligand tritiated (S)-sulpiride 1 nM.

The test system of data set [1] is apomorphine-induced climbing in mice. The data set can be described thus: Antagonism of apomorphine-induced climbing in mice. It is filed as in vivo. Conditions: male mice; for ED50: Mus musculus, po 30 minutes before apomorphine 0.88 mg/kg sc, free base equivalents, read-out: ED50 (dose causing 50% of the control score); for duration: po, antagonism of apomorphine-induced climbing. On the procedure: Antagonism of Apomorphine-Induced Climbing in Mice Groups of 10 male mice weighing […] (max. range 10 g) were treated with test compound or control vehicle by po administration. 30 minutes later, mice were injected subcutaneously with apomorphine (0.88 mg/kg). Immediately after the apomorphine injection the mice were placed in the test cages and the climbing behaviour of each mouse was assessed at 10 and 20 minutes on a simple 0-2 ranking scale. The ED50 values (dose causing 50% of the control score) for the test compounds and 95% confidence limits were calculated.

T2 sequence (P61169 whole entry): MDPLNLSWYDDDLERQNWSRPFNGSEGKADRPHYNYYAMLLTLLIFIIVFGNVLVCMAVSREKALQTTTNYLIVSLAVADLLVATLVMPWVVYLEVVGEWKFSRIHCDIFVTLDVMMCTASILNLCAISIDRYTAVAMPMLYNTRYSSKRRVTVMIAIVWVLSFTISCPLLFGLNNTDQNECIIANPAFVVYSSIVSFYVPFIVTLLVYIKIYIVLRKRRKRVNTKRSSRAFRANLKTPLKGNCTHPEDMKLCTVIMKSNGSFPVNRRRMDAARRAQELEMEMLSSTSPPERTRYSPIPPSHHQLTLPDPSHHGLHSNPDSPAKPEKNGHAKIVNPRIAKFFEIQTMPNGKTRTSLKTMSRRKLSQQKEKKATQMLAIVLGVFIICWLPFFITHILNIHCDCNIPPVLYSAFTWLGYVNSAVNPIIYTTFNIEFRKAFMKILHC
Protocol for D2 dopamine receptors: Striatal tissue from the brains of male Charles River CD rats weighing between 140-250 g were homogenised in ice-cold 50 mM Tris-HCl buffer (pH 7.7 when measured at 25° C.) and centrifuged at 40,000 g for 10 minutes. The pellet was resuspended in Tris salts buffer (50 mM Tris-HCl buffer containing 120 mM NaCl, 5 mM KCl, 2 mM CaCl2 and 1 mM MgCl2 with the addition of 6 mM ascorbic acid; pH 7.7 when measured at 25° C.), and again centrifuged at 40,000 g for 10 minutes. The final pellet was stored at −80° C. Before each test the pellet was resuspended in Tris salts buffer (equivalent to 2 mg wet weight of tissue/ml). […]
The filters were washed with ice-cold Tris-HCl buffer and dried. The filters were punched out in to vials, scintillation fluid added and were left for about 20 hours before being counted by scintillation spectrophotometry. The percentage displacement of specific binding of the tritiated ligand was calculated for the single concentration (10^−6 M) of test compound. […] The inhibition coefficient Ki was then calculated using the formula [formula] […]

For `Oc1ccccc1N1CCC(CNC[C@H]2COc3ccc(C(F)(F)F)cc3O2)CC1` [Example 2, (S)-(−)-2-{4-[N-(7-trifluoromethyl-2,3-dihydro-1,4-benzodioxin-2-ylmethyl)aminomethyl]piperidino}phenol], the Ki on 5-HT1A receptors was determined as 37 nM; on α1-adrenoceptors it was 573 nM; at D2 dopamine receptors, 25 nM. For the same compound, the median effective dose (ED50) in data set [1] was determined as 0.6 mg/kg. The duration result in data set [1] was “[>4 h]”.

As to `COc1ccccc1N1CCC(CNC[C@H]2COc3ccc(Cl)cc3O2)CC1` [Comparative Example A, (S)-(−)-N-(7-Chloro-1,4-benzodioxan-2-ylmethyl)-1-(1-(2-methoxyphenyl)piperid-4-yl)methylamine, reference compound], on 5-HT1A receptors, the Ki was 22 nM. In addition, the affinity at α1-adrenoceptors, expressed as Ki, was 53 nM. Further, in data set [1], the ED50 came to 5 mg/kg and the duration result is “[>6 h]”.

With `Oc1ccccc1N1CCC(CNC[C@H]2COc3ccc(Cl)cc3O2)CC1` [Example 1, (S)-(−)-2-{4-[N-(7-chloro-2,3-dihydro-1,4-benzodioxin-2-ylmethyl)aminomethyl]piperidino}phenol], the melting point is 84 to 86 °C. Also, the Ki on 5-HT1A receptors came to 12 nM. At α1-adrenoceptors, this compound yielded a Ki of 101 nM. Besides, at D2 dopamine receptors, the affinity corresponds to a Ki of 11 nM. Moreover, in data set [1], the ED50 was determined as 3 mg/kg and the duration result is “[>6 h]”.

What is called Ki is the equilibrium dissociation constant of an inhibitor or competing ligand from its target. A high value points to a looser hold on the target. As usually defined, the ED50 is the dose at which the effect has come halfway, by size or by number of responders. Broadly, the melting point is the temperature, or range, at which the solid turns liquid.

The values above are taken from patent US20040039023A1, “Therapeutic agents” (priority 2000, published 2004).
